Measurements published in PMC3608883 (Clinical Drug Investigation, 2013).
Several values for one entry are separate records, joined by “and”; a condition that tells them apart may be missing. Identical values can stand only once.

Key:
Bioequivalence test = conditions: for AUC / Cmax: human, in vivo; for AUCτ test/reference ratio [90 % CI] / Cmax test/reference ratio [90 % CI]: LDX + VXR Day 30 vs VXR alone Day 15, Treatment Arm B
CYP2D6 [1] = conditions: cited from earlier work
CYP2D6 [2] = assay: In vivo CYP2D6 interaction, VXR as CYP2D6 substrate coadministered with LDX; conditions: inferred from VEN increase and ODV decrease with LDX + VXR coadministration
[3] = Treatment-emergent adverse events; type: in vivo, human
[4] = test system: cytochrome P450 (CYP) isoenzyme; conditions: any CYP isoenzyme tested to date; cited from earlier work
Vital signs = type: in vivo, human; conditions: single treatment (LDX alone Arm A; VXR alone Arm B)
[5] = Plasma pharmacokinetics of LDX, d-amphetamine, VEN and ODV; conditions: mean (SD), day 15
[6] = treatment arms combined, LDX alone n = 40 and VXR alone n = 37 during dose titration periods, LDX + VXR n = 67

For C[C@H](N)Cc1ccccc1 [d-Amphetamine, dextroamphetamine], which AUC (Bioequivalence test; 70 mg/day) is on record?
Its AUC is 1110 ng·h/mL.

What about the Cmax (Bioequivalence test; 70 mg/day) of the same molecule?
Its Cmax is 85.9 ng/mL.

What about the “Inhibition of CYP2D6 activity” value (CYP2D6 [1]) of the same molecule?
The value was “weakly inhibits”.

What about the “Inhibition of CYP2D6 activity, from current pharmacokinetic findings” value (CYP2D6 [2]) of the same molecule?
The value was “weak inhibitor”.

With CS(=O)(=O)O.CS(=O)(=O)O.C[C@@H](Cc1ccccc1)NC(=O)[C@@H](N)CCCCN [LDX, Lisdexamfetamine dimesylate] as the molecule, how does the “Time to resolution of serious AE (presyncope)” value ([3]; one participant, LDX 30 mg/day) read?
The value was no more than 10 min.

What about the “Any TEAE” value [3, 6] of the same molecule?
The value was 33 (82.5) n (%).

And the “TEAE Anorexia” value [3, 6]?
The value was 12 (30.0) n (%).

What about the “TEAE Anxiety” value [3, 6] of the same molecule?
Its value is 5 (12.5) n (%).

And the “TEAE Back pain” value [3, 6]?
The value was 2 (5.0) n (%).

And the “TEAE Chest pain” value [3, 6]?
The value was 3 (7.5) n (%).

And the “TEAE Constipation” value [3, 6]?
The value was 3 (7.5) n (%).

What about the “TEAE Diarrhoea” value [3, 6] of the same molecule?
Its value is 2 (5.0) n (%).

What about the “TEAE Dizziness” value [3, 6] of the same molecule?
The value was 3 (7.5) n (%).

What about the “TEAE Dry mouth” value [3, 6] of the same molecule?
Its value is 10 (25.0) n (%).

And the “TEAE Dyspnoea” value [3, 6]?
Its value is 2 (5.0) n (%).

What about the “TEAE Epistaxis” value [3, 6] of the same molecule?
The value was 0 (0.0) n (%).

What about the “TEAE Euphoric mood” value [3, 6] of the same molecule?
The value was 3 (7.5) n (%).

What about the “TEAE Headache” value [3, 6] of the same molecule?
Its value is 7 (17.5) n (%).

What about the “TEAE Insomnia” value [3, 6] of the same molecule?
Its value is 7 (17.5) n (%).

And the “TEAE Libido decreased” value [3, 6]?
Its value is 0 (0.0) n (%).

What about the “TEAE Nausea” value [3, 6] of the same molecule?
Its value is 6 (15.0) n (%).

And the “TEAE Palpitations” value [3, 6]?
Its value is 8 (20.0) n (%).

And the “TEAE Somnolence” value [3, 6]?
Its value is 7 (17.5) n (%).

And the “TEAE Stomach discomfort” value [3, 6]?
Its value is 2 (5.0) n (%).

What about the “TEAE Testicular pain” value [3, 6] of the same molecule?
Its value is 0 (0.0) n (%).

And the “TEAE Urinary hesitation” value [3, 6]?
The value was 0 (0.0) n (%).

What about the “TEAE Vision blurred” value [3, 6] of the same molecule?
Its value is 2 (5.0) n (%).

What about the “Inhibition of CYP isoenzymes” value [4] of the same molecule?
The value was “does not inhibit”.

And the “Maximum mean increase in DBP” value (Vital signs)?
The value was roughly 6 mmHg.

What about the “Maximum mean increase in SBP” value (Vital signs) of the same molecule?
Its value is roughly 7 mmHg.

What about the “Maximum mean increase in pulse rate” value (Vital signs) of the same molecule?
Its value is “approximately 13 beats/min”.

What about the AUCτ ([5]; after LDX alone 70 mg/day) of the same molecule?
The AUCτ was 65.5 (44.0) ng·h/mL.

And the Cmax ([5]; after LDX alone 70 mg/day)?
Its Cmax is 49.1 (32.25) ng/mL.

And the tmax ([5]; after LDX alone 70 mg/day)?
The tmax was 1.1 (0.3) h.

And the t½ ([5]; after LDX alone 70 mg/day)?
Its t½ is 0.4 (0.1) h.

With COc1ccc(C(CN(C)C)C2(O)CCCCC2)cc1 (centres unmarked) [VEN, Venlafaxine] as the molecule, how does the “AUCτ test/reference ratio [90 % CI]” value (Bioequivalence test) read?
The value was 1.13 [0.88, 1.45] and 1.129 [0.88, 1.45].

What about the “Cmax test/reference ratio [90 % CI]” value (Bioequivalence test) of the same molecule?
The value was 1.10 [0.88, 1.38] and 1.103 [0.881, 1.38].

And the “Geometric least squares mean Cmax” value (Bioequivalence test; VXR alone, Day 15, Treatment Arm B)?
Its value is 180.7 ng/mL.

And the AUC (Bioequivalence test; 225 mg/day)?
The AUC was 2410 ng·h/mL.

What about the tmax ([5]; after VXR alone 225 mg/day) of the same molecule?
Its tmax is 6.4 (0.8) h.

With CN(C)CC(c1ccc(O)cc1)C1(O)CCCCC1 (centres unmarked) [ODV, O-desmethylvenlafaxine] as the molecule, how does the “AUCτ test/reference ratio [90 % CI]” value (Bioequivalence test) read?
Its value is 0.83 [0.71, 0.96] and 0.826 [0.713, 0.956].

And the “Cmax test/reference ratio [90 % CI]” value (Bioequivalence test)?
Its value is 0.907 [0.777, 1.058].

And the AUC (Bioequivalence test; 225 mg/day)?
Its AUC is 8080 ng·h/mL.

What about the Cmax (Bioequivalence test; 225 mg/day) of the same molecule?
Its Cmax is 392 ng/mL.
